Our source for the IC50 values is patent publication US20240368181A1, “QUINOXALINE DERIVATIVES AND USES THEREOF” (Black Diamond Therapeutics, Inc., priority 2021, published 2024).

Holding throughout (assay type): cell-based
For assay [1], the system named is DMS-114 (FGFR1 overexpression) cells. The experiment in a line: Cell proliferation assay (CellTiterGlo), DMS-114 cells. The settings on record: Homo sapiens, 72 hours, inhibition of cell growth, intracellular ATP (CellTiterGlo). The source says: (§1) The following is a non-limiting example that describes a cell proliferation assay used to determine the biological activity of the compounds of the present disclosure. More specifically, the assay as used to assess the ability of the compounds to inhibit cell proliferation.
(§2) Briefly, SNU-16 (FGFR2-amplification) cells, were resuspended at 18,520c/ml mL in RPMI containing 10% Heat Inactivated FBS, 1% L-glutamine and dispensed in duplicate (463c/well) into 384 well plates. UM-UC-14 (FGFR3-S249C) cells were resuspended at 40.000c/ml mL in RPMI containing 10% Heat Inactivated FBS, 1% L-glutamine and dispensed in duplicate (1000c/well) into 384 well plates. DMS-114 (FGFR1 overexpression) cells and were resuspended at 40,000c/ml mL in RPMI containing 10% Heat Inactivated FBS, 1% L-glutamine and dispensed in duplicate (1000c/well) into 384 well plates. RT-112 (FGFR3-Tacc3 fusion) cells were resuspended at 40,000c/ml mL in RPMI containing 10% Heat Inactivated FBS, 1% L-glutamine and dispensed in duplicate (1000c/well) into 384 well plates. To determine the effect of the compounds of the present disclosure on cell proliferation, SNU-16, UM-UC-14, DMS-114 and RT112 cells were incubated for 72 hours in the presence of vehicle control (DMSO) or a compound of the present disclosure at varying concentrations. Inhibition of cell growth was subsequently determined by luminescent quantification (Envision by Perkin Elmer) of intracellular ATP content using CellTiterGlo (Promega), according to the protocol provided by the manufacturer. To determine the IC50 values, the vehicle-treated cells were normalized as viable cells and analyzed using the CDD Vault software (Collaborative Drug Discovery, Burlingame, CA).
(In general: Cellular ATP, detected with luciferase, serves as a proxy for viable cell number.)

Assay [2] relates to SNU-16 (FGFR2-amplification) cells. The assay is described as follows: Cell proliferation assay (CellTiterGlo), SNU-16 cells. The settings on record: inhibition of cell growth, intracellular ATP (CellTiterGlo).
Text: as §1, §2

Assay [3] has as its system UM-UC-14 (FGFR3-S249C) cells. The experiment in a line: Cell proliferation assay (CellTiterGlo), UM-UC-14 cells. The settings on record: UMUC14, 72 h, inhibition of cell growth, intracellular ATP (CellTiterGlo).
Text: as §1, §2

Assay [4] relates to RT-112 (FGFR3-Tacc3 fusion) cells. The experiment in a line: Cell proliferation assay (CellTiterGlo), RT-112 cells. To be noted: Homo sapiens, RT-112, 72 h, RT112 cells, inhibition of cell growth, intracellular ATP (CellTiterGlo).
Text: as §1, §2

On to `Cc1nc2ccc(Oc3ccc4ncc(-c5cnn(CC6CC(C)OC(C)C6)c5)nc4c3Cl)cc2[nH]1` (centres unmarked) [Compound 1], for which the IC50 (in general, the concentration needed to halve the response being measured) in assay [1] is 20 to 100 nM; in assay [2] (Homo sapiens, SNU-16, 72 h), 20 to 100 nM.

As for `Cc1nc2ccc(Oc3ccc4ncc(-c5cnn(CC6CCOC6)c5)nc4c3Cl)cc2[nH]1` (centres unmarked) [Compound 2], the IC50 is ≥ 400 nM in assay [1]; 20 to 100 nM in assay [2] (Homo sapiens, SNU-16, 72 h); 20 to 100 nM in assay [3]; 20 to 100 nM in assay [4].

`Cc1nc2ccc(Oc3ccc4ncc(-c5cnn(CC6CCN(C)C(C)(C)C6)c5)nc4c3Cl)cc2[nH]1` (centres unmarked) [Compound 3]: the concentration for half-maximal inhibition (IC50) in assay [1] lay within 100 to 400 nM; in assay [2] (Homo sapiens, SNU-16, 72 h) it was 20 to 100 nM; in assay [3] it was 20 to 100 nM; in assay [4], 20 to 100 nM.

Take `Cc1nc2ccc(Oc3ccc4ncc(-c5cnn(CC6CCN(C)C6)c5)nc4c3Cl)cc2[nH]1` (centres unmarked) [Compound 4]: the IC50 was in the range of 100 to 400 nM in assay [1]; 20 to 100 nM in assay [2] (Homo sapiens, SNU-16, 72 h); 20 to 100 nM in assay [3]; 20 to 100 nM in assay [4].

Take `Cc1nc2ccc(Oc3ccc4ncc(-c5cnn(CC6CC(C)N(C)C(C)C6)c5)nc4c3Cl)cc2[nH]1` (centres unmarked) [Compound 5]: the IC50 was ≥ 400 nM in assay [1]; 20 to 100 nM in assay [2] (Homo sapiens, SNU-16, 72 h); 20 to 100 nM in assay [3]; 20 to 100 nM in assay [4].

As to `Cc1nc2ccc(Oc3ccc4ncc(-c5cnn(CC#N)c5)nc4c3Cl)cc2[nH]1` [Compound 6], the IC50 is ≥ 400 nM in assay [1]; 20 to 100 nM in assay [2] (Homo sapiens, SNU-16, 72 h); 100 to 400 nM in assay [3]; 20 to 100 nM in assay [4].

For the molecule `Cc1nc2ccc(Oc3ccc4ncc(-c5cnn(C6CCCNC6)c5)nc4c3Cl)cc2[nH]1` (centres unmarked) [Compound 7], the IC50 in assay [1] fell in the range of 100 to 400 nM; in assay [2] (Homo sapiens, SNU-16, 72 h) it was 20 to 100 nM; in assay [3], 20 to 100 nM; in assay [4], 20 to 100 nM.

Take `Cc1nc2ccc(Oc3ccc4ncc(-c5cnn(CC6CCOC(C)(C)C6)c5)nc4c3Cl)cc2[nH]1` (centres unmarked) [Compound 8]: the IC50 in assay [1] is 100 to 400 nM; in assay [2] (Homo sapiens, SNU-16, 72 h), 20 to 100 nM; in assay [3] it was 20 to 100 nM; in assay [4], < 20 nM.

For the molecule `Cc1nc2ccc(Oc3ccc4ncc(-c5cnn(CC6CCC(F)(F)CC6)c5)nc4c3Cl)cc2[nH]1` [Compound 9], the IC50 is ≥ 400 nM in assay [1]; 20 to 100 nM in assay [2] (Homo sapiens, SNU-16, 72 h); 20 to 100 nM in assay [3]; 20 to 100 nM in assay [4].

In the case of `Cc1nc2ccc(Oc3ccc4ncc(-c5cnn(CC6CCNC6)c5)nc4c3Cl)cc2[nH]1` (centres unmarked) [Compound 10], the IC50 was ≥ 400 nM in assay [1]; 20 to 100 nM in assay [2] (Homo sapiens, SNU-16, 72 h); 100 to 400 nM in assay [3]; 20 to 100 nM in assay [4].

As to `Cc1nc2ccc(Oc3ccc4ncc(-c5cnn(CC6CCNCC6)c5)nc4c3Cl)cc2[nH]1` [Compound 11], the IC50 is ≥ 400 nM in assay [1], 20 to 100 nM in assay [2] (72 hours), 100 to 400 nM in assay [3] and 20 to 100 nM in assay [4].

Turning to `Cc1nc2ccc(Oc3ccc4ncc(-c5cnn(CC6CCN(S(=O)(=O)C(F)F)CC6)c5)nc4c3Cl)cc2[nH]1` [Compound 12], the IC50 in assay [1] fell in the range of 100 to 400 nM; in assay [2] (Homo sapiens, SNU-16, 72 h) it was 20 to 100 nM; in assay [3], 20 to 100 nM; in assay [4] it was 20 to 100 nM.

As for `Cc1nc2ccc(Oc3ccc4ncc(-c5cnn(CC6CCN(S(=O)(=O)CCO)CC6)c5)nc4c3Cl)cc2[nH]1` [Compound 13], the IC50 in assay [1] was ≥ 400 nM; in assay [2] (Homo sapiens, SNU-16, 72 h), 20 to 100 nM; in assay [3] it was 20 to 100 nM; in assay [4], 20 to 100 nM.

For the molecule `Cc1nc2ccc(Oc3ccc4ncc(-c5cnn(CC6CCN(C)CC6)c5)nc4c3Cl)cc2[nH]1` [Compound 14], the IC50 was 100 to 400 nM in assay [1]; < 20 nM in assay [2] (Homo sapiens, SNU-16, 72 h); < 20 nM in assay [3]; < 20 nM in assay [4].

On to `Cc1nc2ccc(Oc3ccc4ncc(-c5cnn(CCO)c5)nc4c3Cl)cc2[nH]1` [Compound 15], for which the IC50 in assay [1] is ≥ 400 nM; in assay [2] (Homo sapiens, SNU-16, 72 h), 20 to 100 nM; in assay [3], 20 to 100 nM; in assay [4], 20 to 100 nM.

Turning to `Cc1nc2ccc(Oc3ccc4ncc(-c5cnn(CC6CNC6)c5)nc4c3Cl)cc2[nH]1` [Compound 16], the IC50 was ≥ 400 nM in assay [1]; 100 to 400 nM in assay [2] (Homo sapiens, SNU-16, 72 h); 100 to 400 nM in assay [3]; 100 to 400 nM in assay [4].
